US9868692B2, “Compounds and compositions for intracellular delivery of therapeutic agents” (MODERNATX, Inc., priority 2015, dated 2018)

What was measured:
[1] = Encapsulation efficiency of RNA, QUANT-IT RIBOGREEN RNA assay; type: physicochemical; settings: Table 1A formulations
Excerpt: The efficiency of encapsulation of a therapeutic and/or prophylactic describes the amount of therapeutic and/or prophylactic that is encapsulated or otherwise associated with a nanoparticle composition after preparation, relative to the initial amount provided. The encapsulation efficiency is desirably high (e.g., close to 100%). The encapsulation efficiency may be measured, for example, by comparing the amount of therapeutic and/or prophylactic in a solution containing the nanoparticle composition before and after breaking up the nanoparticle composition with one or more organic solvents or detergents. Fluorescence may be used to measure the amount of free therapeutic and/or prophylactic (e.g., RNA) in a solution. For the nanoparticle compositions described herein, the encapsulation efficiency of a therapeutic and/or prophylactic may be at least 50%, for example 50%, 55%, 60%, 65%, 70%, 75%, 80%, 85%, 90%, 91%, 92%, 93%, 94%, 95%, 96%, 97%, 98%, 99%, or 100%. In some embodiments, the encapsulation efficiency may be at least 80%. In certain embodiments, the encapsulation efficiency may be at least 90%.
For nanoparticle compositions including an RNA, a QUANT-IT™ RIBOGREEN® RNA assay (Invitrogen Corporation Carlsbad, Calif.) can be used to evaluate the encapsulation of an RNA by the nanoparticle composition. The samples are diluted to a concentration of approximately 5 μg/mL in a TE buffer solution (10 mM Tris-HCl, 1 mM EDTA, pH 7.5). 50 μL of the diluted samples are transferred to a polystyrene 96 well plate and either 50 μL of TE buffer or 50 μL of a 2% Triton X-100 solution is added to the wells. The plate is incubated at a temperature of 37° C. for 15 minutes. The RIBOGREEN® reagent is diluted 1:100 in TE buffer, and 100 μL of this solution is added to each well. The fluorescence intensity can be measured using a fluorescence plate reader (Wallac Victor 1420 Multilablel Counter; Perkin Elmer, Waltham, Mass.) at an excitation wavelength of, for example, about 480 nm and an emission wavelength of, for example, about 520 nm. The fluorescence values of the reagent blank are subtracted from that of each of the samples and the percentage of free RNA is determined by dividing the fluorescence intensity of the intact sample (without addition of Triton X-100) by the fluorescence value of the disrupted sample (caused by the addition of Triton X-100).

[2] = Particle size, polydispersity index (and zeta potential) of nanoparticle compositions, Zetasizer Nano ZS; type: physicochemical; settings: Table 1A formulations
Excerpt: Nanoparticle compositions may be characterized by a variety of methods. For example, microscopy (e.g., transmission electron microscopy or scanning electron microscopy) may be used to examine the morphology and size distribution of a nanoparticle composition. Dynamic light scattering or potentiometry (e.g., potentiometric titrations) may be used to measure zeta potentials. Dynamic light scattering may also be utilized to determine particle sizes. Instruments such as the Zetasizer Nano ZS (Malvern Instruments Ltd, Malvern, Worcestershire, UK) may also be used to measure multiple characteristics of a nanoparticle composition, such as particle size, polydispersity index, and zeta potential.
A Zetasizer Nano ZS (Malvern Instruments Ltd, Malvern, Worcestershire, UK) can be used to determine the particle size, the polydispersity index (PDI) and the zeta potential of the nanoparticle compositions in 1×PBS in determining particle size and 15 mM PBS in determining zeta potential.

[3] = Lipid clearance: % dose remaining in liver after administration of Luc formulations; type: in vivo, mice; settings: Table 3D
[4] = Residual lipid level in liver of rats (UPLC-MS quantification); type: in vivo; settings: rat, liver, iv, intravenous, 48 hours, read-out: Liver level
Protocol: (§1) To pre-weighed tissues, Milli-Q water was added (900 μL water per 100 mg tissue). Tissues were homogenized using an Omni probe homogenizer until uniform. 50 μL of samples and matrix calibration standards were aliquoted into a 96-well plate. 50 μL of blank matrix for matrix blanks and control blanks were aliquoted. 400 μL IS spiking solution were manually added to all samples except matrix blanks. 400 μL of 50:50 ACN:IPA were manually added to matrix blanks. The plate was covered and the samples vortexed and centrifuged for 5 minutes at >3000 rpm. 200 μL of the samples were transferred into a clean 96-well plate for analysis. […] Detection was based on electrospray ionization (ESI) in positive mode using a Sciex API5500 Mass Spectrometer.
(§2) The expression of hEPO in rats intravenously administered a nanoparticle composition at a dose of 0.2 mpk or 2.0 mpk was measured at 6 hours. […] Liver and spleen levels represent the average values calculated for 3 rats in each group.
(§3) The expression of hEPO and lipid levels in the liver and spleen in rats intravenously administered a nanoparticle composition at a dose of 0.2 mpk was measured at various timepoints. […] Lipids were formulated according to the standard MC3 formulation described above.

[5] = Residual lipid level in spleen of rats (UPLC-MS quantification); type: in vivo; settings: rat, iv, 48 hours, read-out: Spleen level
Protocol: as §1, §2, §3

CCCCCCCCCOC(=O)CCCCCCCN(CCCCCCCC(=O)OC(CCCCCCCC)CCCCCCCC)C(CO)CO [Compound 156, Heptadecan-9-yl 8-((1,3-dihydroxypropan-2-yl)(8-(nonyloxy)-8-oxooctyl)amino)octanoate]
EE (%) [1]: 98.90% | PDI [2]: 0.072

CCCCCCCCCOC(=O)CCCCCCCN(CCCCCCCC(=O)OC(CCCCCCCC)CCCCCCCC)CCCNC(=S)NC [Compound 113, Heptadecan-9-yl 8-((3-(3-methylthioureido)propyl)(8-(nonyloxy)-8-oxooctyl)amino)octanoate]
EE (%) [1]: 99% | PDI [2]: 0.15

CCCCCCCCCC(=O)OCCCCCCCN(CCO)CCCCCCCC(=O)OC(CCCCCCCC)CCCCCCCC [Compound 96, 7-((8-(Heptadecan-9-yloxy)-8-oxooctyl)(2-hydroxyethyl)amino)heptyl decanoate]
% Dose Remaining in Liver 6h ([3]; first column of this head): <1% | % Dose Remaining in Liver 6h ([3]; second column of this head): <1%

CCCCCCCCCOC(=O)CCCCCCCN(CCCCCCCC(=O)OC(CCCCCCCC)CCCCCCCC)C(C)CO (stereo not drawn) [Compound 157, Heptadecan-9-yl 8-((1-hydroxypropan-2-yl)(8-(nonyloxy)-8-oxooctyl)amino)octanoate]
% Dose Remaining in Liver 6h ([3]; first column of this head): <1% | % Dose Remaining in Liver 6h ([3]; second column of this head): <1% | PDI [2]: 0.096

CCCCCCCCC(CC)OC(=O)CCCCCCCN(CCO)CCCCCCCC(=O)OC(CCCCCCCC)CCCCCCCC (stereo not drawn) [Compound 49, heptadecan-9-yl 8-((2-hydroxyethyl)(8-oxo-8-(undecan-3-yloxy)octyl)amino)octanoate]
EE (%) [1]: 96.86% | PDI [2]: 0.110 | concentration at 48 h ([4]; 0.2 mg/kg, 0.2 mpk): 6490 ng/g | concentration at 48 h ([4]; 2 mg/kg, 2 mpk): 61400 ng/g | concentration at 48 h ([5]; 0.2 mg/kg, 0.2 mpk): 0.36 | concentration at 48 h ([5]; 2 mg/kg, 2 mpk): 0.37

CCCCCCCCCOC(=O)CCCCCCCN(CCCCCCCC(=O)OC(CCCCCCCC)CCCCCCCC)CCCNC(=O)N(C)C [Compound 110, Heptadecan-9-yl 8-((3-(3,3-dimethylureido)propyl)(8-(nonyloxy)-8-oxooctyl)amino)octanoate]
EE (%) [1]: 97.4% | PDI [2]: 0.13

CCCCCCCCCC(=O)OCCCCCCCN(CCO)CCCCCCCOC(=O)C(CCCCCCCC)CCCCCCCC [Compound 151, 7-((7-(Decanoyloxy)heptyl)(2-hydroxyethyl)amino)heptyl 2-octyldecanoate]
% Dose Remaining in Liver 6h ([3]; first column of this head): <1% | % Dose Remaining in Liver 6h ([3]; second column of this head): <1%

CCCCCCCCCOC(=O)CCCCCCCN(CCCCCCCC(=O)OC(CCCCCCCC)CCCCCCCC)CCCNC(=S)N(C)C [Compound 111, Heptadecan-9-yl 8-((3-(3,3-dimethylthioureido)propyl)(8-(nonyloxy)-8-oxooctyl)amino)octanoate]
EE (%) [1]: 98.2% | PDI [2]: 0.14

CCCCCCCCC(CC)OC(=O)CCCCCN(CCO)CCCCCCCC(=O)OC(CCCCCCCC)CCCCCCCC (stereo not drawn) [Compound 75, Heptadecan-9-yl 8-((2-hydroxyethyl)(6-oxo-6-(undecan-3-yloxy)hexyl)amino)octanoate]
EE (%) [1]: 98.1% | PDI [2]: 0.10

CCCCCCCCC(CCCCCCCC)OC(=O)CCCCCCCN(CCO)CCCCCC(=O)OC(CCCCCCCC)C1CC1 (stereo not drawn) [Compound 128, Heptadecan-9-yl 8-((6-((1-cyclopropylnonyl)oxy)-6-oxohexyl)(2-hydroxyethyl)amino)octanoate]
EE (%) [1]: 98.2% | PDI [2]: 0.14

CCCCCCCCCOC(=O)CCCCCCCN(CCO)CCCCCCCCCC(CCCCCCCC)CCCCCCCC [Compound 153, Nonyl 8-((2-hydroxyethyl)(10-octyloctadecyl)amino)octanoate]
% Dose Remaining in Liver 6h ([3]; first column of this head): <1% | % Dose Remaining in Liver 6h ([3]; second column of this head): <1%

CCCCCCCCCOC(=O)CCCCCCCN(CCCCCCCC(=O)OC(CCCCCCCC)CCCCCCCC)CCCN/C(=C/[N+](=O)[O-])NC [Compound 170, Heptadecan-9-yl (E)-8-((3-((1-(methylamino)-2-nitrovinyl)amino)propyl)(8-(nonyloxy)-8-oxooctyl)amino)octanoate]
EE (%) [1]: 98.24% | PDI [2]: 0.12

CCCCCCCCC(CCCCCCCC)OC(=O)CCCCCCCN(CCO)CCCCCCCC(=O)OCC(CCCCCCC)OC (stereo not drawn) [Compound 148, Heptadecan-9-yl 8-((2-hydroxyethyl)(8-((2-methoxynonyl)oxy)-8-oxooctyl)amino)octanoate]
% Dose Remaining in Liver 6h ([3]; first column of this head): <1% | % Dose Remaining in Liver 6h ([3]; second column of this head): <1%

CCCCCCCCC(CC)OC(=O)CCCN(CCO)CCCCCCCC(=O)OC(CCCCCCCC)CCCCCCCC (stereo not drawn) [Compound 72, Heptadecan-9-yl 8-((2-hydroxyethyl)(4-oxo-4-(undecan-3-yloxy)butyl)amino)octanoate]
EE (%) [1]: 97.3% | PDI [2]: 0.11

CCCCCCCCCOC(=O)CCCCCCCN(CCCCCCCC(=O)OC(CCCCCCCC)CCCCCCCC)CCCN1C(=O)CNC1=O [Compound 174, Heptadecan-9-yl 8-((3-(2,5-dioxoimidazolidin-1-yl)propyl)(8-(nonyloxy)-8-oxooctyl)amino)octanoate]
EE (%) [1]: 98.52% | PDI [2]: 0.12

CCCCCCCCCOC(=O)CCCCCCCN(CCCCCCCC(=O)OC(CCCCCCCC)CCCCCCCC)CCCNc1c(N(C)C)c(=O)c1=O [Compound 169, Heptadecan-9-yl 8-((3-((2-(dimethylamino)-3,4-dioxocyclobut-1-en-1-yl)amino)propyl)(8-(nonyloxy)-8-oxooctyl)amino)octanoate]
EE (%) [1]: 99.04% | PDI [2]: 0.18

CCCCCCCCC(CCCCCCCC)OC(=O)CCCCCCCN(C)CCCCCCCCCCCC(=O)OCCCCC [Compound 150, Pentyl 12-((8-(heptadecan-9-yloxy)-8-oxooctyl)(methyl)amino)dodecanoate]
% Dose Remaining in Liver 6h ([3]; first column of this head): <1% | % Dose Remaining in Liver 6h ([3]; second column of this head): <1%
